The values below come from patent US20230322735A1, “AZETIDINYL TRYPTAMINES AND METHODS OF TREATING PSYCHIATRIC DISORDERS” (priority 2020, published 2023).

Where only a bound is given, the exact number is not on record here.

For one data set, the target named is T1, 5-HT2B receptor (Homo sapiens, UniProt P41595).
T1 construct: host or cells: HEK293
The data set can be described thus: FLIPR Ca2+ flux agonist assay at 5-HT2B (HEK293). The format is cell-based. As for the experimental part:
(§1) A solution of 250 mM probenecid in 1 mL FLIPR assay buffer was prepared fresh. This was combined with a fluorescent dye (Fluo-4 Direct™) to make a final assay concentration of 2.5 mM. […] The fluorescent dye was then added to the assay plate along with assay buffer to a final volume of 40 μL. The cell plate was incubated for 50 min at 37° C. and 5% CO2 and placed into the FLIPR Tetra along with the compound plate. 10 μL of references and compounds were then transferred from the compound plate into the cell plate and the fluorescent signal was read.
(In general: A change in cytosolic calcium serves as a functional read-out for many receptors and channels.)

A further data set has as its target T2, human 5-HT2C receptor (Homo sapiens, UniProt P28335).
T2 sequence (P28335 33-458): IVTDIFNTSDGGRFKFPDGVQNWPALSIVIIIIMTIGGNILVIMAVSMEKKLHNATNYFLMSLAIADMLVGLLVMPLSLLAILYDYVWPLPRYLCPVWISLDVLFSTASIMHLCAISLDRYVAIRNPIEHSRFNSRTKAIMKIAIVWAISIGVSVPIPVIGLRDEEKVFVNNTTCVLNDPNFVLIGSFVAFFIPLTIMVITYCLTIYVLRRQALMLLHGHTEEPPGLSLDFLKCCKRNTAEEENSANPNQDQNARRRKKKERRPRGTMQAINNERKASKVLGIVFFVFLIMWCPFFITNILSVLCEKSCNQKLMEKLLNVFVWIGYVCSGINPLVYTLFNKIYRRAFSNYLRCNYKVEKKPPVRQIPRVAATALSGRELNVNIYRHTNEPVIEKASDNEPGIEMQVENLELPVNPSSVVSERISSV
The data set is described as follows: cell-based. The following applies: Ca2+ flux, agonist mode.

The target of another data set is T3, 5-HT1A receptor (Homo sapiens, UniProt P08908).
T3 construct: host or cells: CHO cells
T3 sequence (P08908 1-422): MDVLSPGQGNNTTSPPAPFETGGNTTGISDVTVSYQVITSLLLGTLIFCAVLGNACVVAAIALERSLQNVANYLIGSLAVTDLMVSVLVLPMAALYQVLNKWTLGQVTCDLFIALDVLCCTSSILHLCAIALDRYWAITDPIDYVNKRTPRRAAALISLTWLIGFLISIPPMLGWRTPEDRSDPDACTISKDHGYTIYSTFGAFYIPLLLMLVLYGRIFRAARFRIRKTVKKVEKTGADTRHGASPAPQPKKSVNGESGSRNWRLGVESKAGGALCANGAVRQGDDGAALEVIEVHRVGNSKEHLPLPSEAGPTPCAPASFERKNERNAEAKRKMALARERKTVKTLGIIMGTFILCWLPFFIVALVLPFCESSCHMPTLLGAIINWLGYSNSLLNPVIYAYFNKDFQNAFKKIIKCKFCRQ
The data set is described as follows: FLIPR Ca2+ flux agonist assay at 5-HT1A (CHO cells). The format is cell-based. The method, then:
as §1

The subject of a further data set is C57BL/6 mice. The data set can be described thus: Head twitch response (HTR) in mice. The format is in vivo, mouse. The following applies: SC.
The test system of the next data set is Sprague Dawley rats. The data set is described as follows: Forced swim test (FST) in rats. Type of data set: in vivo, rat. The following applies: SC. As for the experimental part: These effects on swimming were stronger than those induced by the control antidepressant desipramine.
Animals. Male Sprague Dawley rats, aged 8-10 weeks, were used in the experiments. Animals were housed in groups of 2 under controlled temperature (22±3° C.) and relative humidity (30-70%) conditions, with 12-hour light/dark cycles, and with ad libitum food and water. These studies were carried out in strict accordance with the requirements of the Committee for the Purpose of Control and Supervision of Experiments on Animals (CPCSEA), India. All efforts were made to minimize suffering.
Drugs and Drug Administration. Compound 2 was prepared as described above. All other compounds were commercially obtained. Test compounds, saline vehicle, and the positive control desipramine were administered subcutaneously (SC), with doses calculated based on the free base. […] All compounds were administered at a volume of 5 mL/kg. Test compounds and vehicle were administered 0.5 h after the start of the training swim (Swim 1) and 23.5 h before the test swim (Swim 2). Desipramine was administered 3 times, at 23.5 h, 5 h, and 1 h before the test swim (Swim 2), each time at a dose of 20 mg/kg.
Forced Swim Test (FST). […] Group size was N=10 per treatment, except for the vehicle and desipramine groups, which were N=20. Rats were handled for about 2 min daily for the 5 days prior to the beginning of the experimental procedure. On the first day of the experiment (i.e., Day 0), post randomization, training swim sessions (Swim 1) were conducted between 12:00 and 18:00 h with all animals by placing rats in individual glass cylinders (46 cm tall×20 cm in diameter) containing 23-25° C. water 30 cm deep for 15 minutes. At the conclusion of Swim 1, animals were dried with paper towels, placed in heated drying cages for 15 minutes, and then returned to their home cages. […]
Behavioral scoring was conducted by observers who were blind to the treatment groups. Animals were continuously observed during Swim 2 and the total time spent engaging in the following behaviors was recorded: immobile, swimming, and climbing. […]

Data set [1] is described as follows: Stability in rat brain homogenate.
The mark [2] stands for this setting: single dose 23.5 h before test swim, vs vehicle.

T1 sequence (P41595 whole entry): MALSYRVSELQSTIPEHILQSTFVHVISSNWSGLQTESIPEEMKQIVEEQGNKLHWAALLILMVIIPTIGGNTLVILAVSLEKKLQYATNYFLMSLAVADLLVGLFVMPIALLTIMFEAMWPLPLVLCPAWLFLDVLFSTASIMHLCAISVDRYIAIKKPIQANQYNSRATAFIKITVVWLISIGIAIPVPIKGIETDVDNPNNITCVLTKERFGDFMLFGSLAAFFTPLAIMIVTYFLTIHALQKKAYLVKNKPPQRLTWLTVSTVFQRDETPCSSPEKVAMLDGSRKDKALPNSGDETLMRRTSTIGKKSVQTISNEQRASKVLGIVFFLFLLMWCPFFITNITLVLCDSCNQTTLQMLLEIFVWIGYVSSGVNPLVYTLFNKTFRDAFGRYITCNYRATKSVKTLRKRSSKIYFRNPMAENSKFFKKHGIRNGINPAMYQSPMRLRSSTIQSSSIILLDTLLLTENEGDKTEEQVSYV

In the case of `Oc1cccc2[nH]cc(CCN3CCC3)c12` [Compound 2, 3-(2-(azetidin-1-yl)ethyl)-1H-indol-4-ol], the EC50 – broadly, the concentration needed to bring the measured effect to its halfway point – at 5-HT2B receptor was over 10000 nM; at human 5-HT2C receptor, 279 nM; at 5-HT1A receptor it was 1030 nM. For the same compound, the “5-HT2B % Act @ Max Dose” value at 5-HT2B receptor (Ca2+ flux, agonist mode, HEK293) stood at 3.83%. In addition, on human 5-HT2C receptor, the “5-HT2C % Act @ Max Dose” value is listed as 48.4%. Also, on 5-HT1A receptor (Ca2+ flux, agonist mode, CHO cells), the “5-HT1A % Act @ Max Dose” value is given as 102%. For the same compound, the “Average HTR Over 20-min Test” value in the data set with C57BL/6 mice (dose 0.1 mg/kg) was 4.667; in the data set on C57BL/6 mice (dose 1 mg/kg) it was 8.667; with C57BL/6 mice (dose 10 mg/kg), 9.000. For the same compound, the “dose with significant effect on immobility in the FST” value with Sprague Dawley rats (23.5 h pre-treatment, lowest dose tested) is recorded as at most 0.1 mg/kg. The “immobility time in the FST” value in the data set on Sprague Dawley rats (setting [2]) is on record as “reduced immobility time”. The “swimming time in the FST” value in the data set on Sprague Dawley rats (setting [2]) is on record as “significant increases in swimming”. In data set [1], the “stability in rat brain homogenate (in words)” value is recorded as “good stability”. Further, in data set [1] (male, Sprague Dawley, rat, rat brain homogenate), the half-life (in general, how long it takes for the measured level to halve) at 1 μM came out at 2.91 h. Moreover, the “% Compound Remaining (after 120 min)” value in data set [1] (rat brain homogenate (male Sprague Dawley), 1 μM, 37° C., 120 min) stood at 56.8%.
